Data on 10 compounds can be found in US12403137B2, “Compounds and methods of use” (Tango Therapeutics, Inc., priority 2019, dated 2025).

In general, IC50 refers to the midpoint of a concentration-inhibition curve.

For test [1], the system named is HAP1 MTAP-intact cell line. As to the kind of experiment: SDMA in-cell western assay, HAP1 MTAP-intact. Format: cell-based. The settings on record: Homo sapiens. Put shortly:
(§1)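 IC50 values come from an SDMA in-cell western run in isogenic HAP1 cells, either MTAP-null or expressing endogenous MTAP. The intact-to-deleted IC50 ratio is used to score MTAP selectivity.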

Test [2] deals with HAP1 MTAP-deleted cell line. Briefly: SDMA in-cell western assay, HAP1 MTAP-deleted. Format: cell-based. The settings on record: for IC50: Homo sapiens, HAP1 MTAP-deleted (MTAP-null) cell line; for MTAP Intact/Deleted Ratio: IC50 ratio HAP1 MTAP-intact / HAP1 MTAP-deleted, >=3 fold considered MTAP-selective. Summed up: as §1
Test [3] has as its target T1, PRMT5 (Homo sapiens, UniProt O14744).
T1 construct: purchased Viva (custom protein)
As to the kind of experiment: PRMT5 inhibition assay with no cofactor. Format: biochemical. To be noted: against PRMT5 with no cofactor; read-out: No Co-factor IC50.

The target in test [4] is T1, PRMT5. As to the kind of experiment: PRMT5 inhibition assay with MTA as cofactor. To be noted: for IC50: against PRMT5 with MTA as cofactor; for SAM/MTA Ratio: ratio of Ki in the presence of SAM to Ki in the presence of MTA, Ki=IC50/1.5 (SAM), Ki=IC50/13.5 (MTA). Format: biochemical. From the text:
(§2) The Ki values can be calculated from the IC50 values as described in the Examples section. As detailed in the Examples section, for the assay performed in the presence of SAM, IC50=Ki×1.5 (Ki=IC50/1.5). For the assay performed in the presence of MTA, IC50=Ki×13.5 (Ki=IC50/13.5). Column 6 indicates the ratio between the Ki of compounds in the presence of SAM and the Ki of compounds in the presence of MTA

Test [5] deals with T1, PRMT5. Briefly: PRMT5 inhibition assay with SAM as cofactor. To be noted: against PRMT5 in the presence of SAM as cofactor. Format: biochemical.
Excerpt: as §2

T1 sequence (O14744 whole entry): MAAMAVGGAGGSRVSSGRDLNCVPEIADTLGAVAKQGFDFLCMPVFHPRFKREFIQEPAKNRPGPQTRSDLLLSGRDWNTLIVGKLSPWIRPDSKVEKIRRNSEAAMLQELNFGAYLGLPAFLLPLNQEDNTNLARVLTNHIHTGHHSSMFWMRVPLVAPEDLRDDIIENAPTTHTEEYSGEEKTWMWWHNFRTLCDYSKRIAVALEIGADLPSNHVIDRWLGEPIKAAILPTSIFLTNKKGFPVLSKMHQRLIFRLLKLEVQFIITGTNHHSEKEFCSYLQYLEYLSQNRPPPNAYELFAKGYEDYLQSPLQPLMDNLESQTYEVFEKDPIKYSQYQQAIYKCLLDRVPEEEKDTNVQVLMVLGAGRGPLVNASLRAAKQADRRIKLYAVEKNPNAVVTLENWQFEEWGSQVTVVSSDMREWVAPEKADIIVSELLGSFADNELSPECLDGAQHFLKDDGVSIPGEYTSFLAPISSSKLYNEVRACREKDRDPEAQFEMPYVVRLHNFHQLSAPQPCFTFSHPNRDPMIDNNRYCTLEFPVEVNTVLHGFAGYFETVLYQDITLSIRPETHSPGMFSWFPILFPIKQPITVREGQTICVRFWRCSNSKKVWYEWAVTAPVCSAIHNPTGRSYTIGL
T1 sequence (Q9BQA1 whole entry partner): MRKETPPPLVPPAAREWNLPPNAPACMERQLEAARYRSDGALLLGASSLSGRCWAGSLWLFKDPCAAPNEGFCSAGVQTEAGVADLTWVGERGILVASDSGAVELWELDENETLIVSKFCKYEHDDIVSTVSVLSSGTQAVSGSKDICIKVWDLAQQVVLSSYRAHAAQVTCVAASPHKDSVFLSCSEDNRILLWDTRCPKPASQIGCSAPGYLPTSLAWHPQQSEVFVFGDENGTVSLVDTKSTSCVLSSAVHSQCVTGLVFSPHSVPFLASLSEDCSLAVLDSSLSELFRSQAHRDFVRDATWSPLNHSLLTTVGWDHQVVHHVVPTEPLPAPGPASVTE

For `CCOc1nc(N2CCN(C(=O)OC)CC2)ccc1C(=O)NC[C@@H](O)[C@@H]1Cc2ccc(OCc3cnco3)cc2CN1` [Compound 16, methyl 4-(6-ethoxy-5-(((R)-2-hydroxy-2-((S)-7-(oxazol-5-ylmethoxy)-1,2,3,4-tetrahydroisoquinolin-3-yl)ethyl)carbamoyl)pyridin-2-yl)piperazine-1-carboxylate], the IC50 was 1000 to 10000 nM in test [1]; less than 1000 nM in test [2]; 50 to 500 nM at PRMT5 [3]; less than 50 nM against PRMT5 [4]; 50 to 500 nM on PRMT5 [5]. Moreover, the “MTAP Intact/Deleted Ratio” value in test [2] was “B* (an IC50 ratio greater than or equal to 3 fold but lower than 10 fold between the IC50 in the HAP1 MTAP-intact cell line and the HAP1 MTAP-deleted cell line)”. For the same compound, on PRMT5 [4], the “SAM/MTA Ratio” value was “A (a Ki ratio greater than or equal to 10 fold between the Ki in the presence of SAM and the Ki in the presence of MTA)”.

`CCOc1nc(N2CCN(C(=O)OC)CC2)ccc1C(=O)NC[C@@H](O)[C@@H]1Cc2ccc(OCc3ocnc3C)cc2CN1` [Compound 17, methyl 4-(6-ethoxy-5-(((R)-2-hydroxy-2-((S)-7-((4-methyloxazol-5-yl)methoxy)-1,2,3,4-tetrahydroisoquinolin-3-yl)ethyl)carbamoyl)pyridin-2-yl)piperazine-1-carboxylate]: the IC50 in test [1] was 1000 to 10000 nM; in test [2] it was less than 1000 nM; on PRMT5 [3], 50 to 500 nM; against PRMT5 [4], less than 50 nM; at PRMT5 [5], 50 to 500 nM. Besides, the “MTAP Intact/Deleted Ratio” value in test [2] was “A* (an IC50 ratio greater than or equal to 10 fold between the IC50 in the HAP1 MTAP-intact cell line and the HAP1 MTAP-deleted cell line)”. The “SAM/MTA Ratio” value on PRMT5 [4] is “A (a Ki ratio greater than or equal to 10 fold between the Ki in the presence of SAM and the Ki in the presence of MTA)”.

Turning to `CCOc1nc(N2CCN(C(=O)OC)CC2)ccc1C(=O)NC[C@@H](O)[C@@H]1Cc2ccc(OCc3ccnn3C)cc2CN1` [Compound 18, methyl 4-(6-ethoxy-5-(((R)-2-hydroxy-2-((S)-7-((1-methyl-1H-pyrazol-5-yl)methoxy)-1,2,3,4-tetrahydroisoquinolin-3-yl)ethyl)carbamoyl)pyridin-2-yl)piperazine-1-carboxylate], the IC50 in test [1] was not below 10000 nM; in test [2] it was less than 1000 nM; on PRMT5 [3], 500 to 5000 nM; against PRMT5 [4] it was less than 50 nM; at PRMT5 [5], 50 to 500 nM. In test [2], the “MTAP Intact/Deleted Ratio” value is “A* (an IC50 ratio greater than or equal to 10 fold between the IC50 in the HAP1 MTAP-intact cell line and the HAP1 MTAP-deleted cell line)”. Also, on PRMT5 [4], the “SAM/MTA Ratio” value is “A (a Ki ratio greater than or equal to 10 fold between the Ki in the presence of SAM and the Ki in the presence of MTA)”.

Turning to `Cc1ncoc1COc1ccc2c(c1)CN[C@H]([C@H](O)CNC(=O)c1ccc3c(c1)CCN(C(=O)c1ccc(Br)cc1)C3)C2` [Compound 20, 2-(4-bromobenzoyl)-N—((R)-2-hydroxy-2-((S)-7-((4-methyloxazol-5-yl)methoxy)-1,2,3,4-tetrahydroisoquinolin-3-yl)ethyl)-1,2,3,4-tetrahydroisoquinoline-6-carboxamide], the IC50 in test [1] was 1000 to 10000 nM; in test [2], less than 1000 nM; at PRMT5 [3], 50 to 500 nM; against PRMT5 [4], less than 50 nM; at PRMT5 [5] it was 50 to 500 nM. Also, the “MTAP Intact/Deleted Ratio” value in test [2] was “A* (an IC50 ratio greater than or equal to 10 fold between the IC50 in the HAP1 MTAP-intact cell line and the HAP1 MTAP-deleted cell line)”. In addition, the “SAM/MTA Ratio” value at PRMT5 [4] was “A (a Ki ratio greater than or equal to 10 fold between the Ki in the presence of SAM and the Ki in the presence of MTA)”.

Turning to `COc1ccc(C(=O)N2CCc3cc(C(=O)NC[C@@H](O)[C@@H]4Cc5ccc(OCc6ocnc6C)cc5CN4)ccc3C2)cc1` [Compound 21, N—((R)-2-hydroxy-2-((S)-7-((4-methyloxazol-5-yl)methoxy)-1,2,3,4-tetrahydroisoquinolin-3-yl)ethyl)-2-(4-methoxybenzoyl)-1,2,3,4-tetrahydroisoquinoline-6-carboxamide], the concentration for half-maximal inhibition (IC50) in test [1] is 1000 to 10000 nM; in test [2], less than 1000 nM; at PRMT5 [3], 50 to 500 nM; on PRMT5 [4], less than 50 nM; at PRMT5 [5], 50 to 500 nM. Besides, the “MTAP Intact/Deleted Ratio” value in test [2] is “A* (an IC50 ratio greater than or equal to 10 fold between the IC50 in the HAP1 MTAP-intact cell line and the HAP1 MTAP-deleted cell line)”. Moreover, the “SAM/MTA Ratio” value on PRMT5 [4] is “A (a Ki ratio greater than or equal to 10 fold between the Ki in the presence of SAM and the Ki in the presence of MTA)”.

For the compound `Cc1ncoc1COc1ccc2c(c1)CN[C@H]([C@H](O)CNC(=O)c1ccc(OC3CCN(Cc4ccncc4)CC3)cc1)C2` [Compound 23, N—((R)-2-hydroxy-2-((S)-7-((4-methyloxazol-5-yl)methoxy)-1,2,3,4-tetrahydroisoquinolin-3-yl)ethyl)-4-((1-(pyridin-4-ylmethyl)piperidin-4-yl)oxy)benzamide], the IC50 in test [1] is less than 1000 nM; in test [2], less than 1000 nM; at PRMT5 [3], 50 to 500 nM; against PRMT5 [4] it was less than 50 nM; at PRMT5 [5], 50 to 500 nM. Further, the “MTAP Intact/Deleted Ratio” value in test [2] is “B* (an IC50 ratio greater than or equal to 3 fold but lower than 10 fold between the IC50 in the HAP1 MTAP-intact cell line and the HAP1 MTAP-deleted cell line)”. Besides, on PRMT5 [4], the “SAM/MTA Ratio” value was “A (a Ki ratio greater than or equal to 10 fold between the Ki in the presence of SAM and the Ki in the presence of MTA)”.

Turning to `CCN(C)c1cc(C(=O)NC[C@@H](O)[C@@H]2Cc3ccc(OCc4ocnc4C)cc3CN2)cc(NC2CCC2)n1` [Compound 24, 2-(cyclobutylamino)-6-(ethyl(methyl)amino)-N—((R)-2-hydroxy-2-((S)-7-((4-methyloxazol-5-yl)methoxy)-1,2,3,4-tetrahydroisoquinolin-3-yl)ethyl)isonicotinamide], the half-maximal inhibitory concentration (IC50) in test [1] was not below 10000 nM; in test [2] it was less than 1000 nM; on PRMT5 [3], 50 to 500 nM; against PRMT5 [4] it was 50 to 500 nM; at PRMT5 [5], 50 to 500 nM. Also, the “MTAP Intact/Deleted Ratio” value in test [2] was “A* (an IC50 ratio greater than or equal to 10 fold between the IC50 in the HAP1 MTAP-intact cell line and the HAP1 MTAP-deleted cell line)”. Moreover, at PRMT5 [4], the “SAM/MTA Ratio” value was “A (a Ki ratio greater than or equal to 10 fold between the Ki in the presence of SAM and the Ki in the presence of MTA)”.

`Cc1ncoc1COc1ccc2c(c1)CN[C@H]([C@H](O)CNC(=O)c1cccc(-c3ccccn3)c1)C2` [Compound 25, N—((R)-2-hydroxy-2-((S)-7-((4-methyloxazol-5-yl)methoxy)-1,2,3,4-tetrahydroisoquinolin-3-yl)ethyl)-3-(pyridin-2-yl)benzamide]: the IC50 in test [1] is not below 10000 nM; in test [2], 1000 to 10000 nM; on PRMT5 [3], not below 5000 nM; on PRMT5 [4] it was 50 to 500 nM; at PRMT5 [5] it was 50 to 500 nM. For the same compound, the “MTAP Intact/Deleted Ratio” value in test [2] was “C* (an IC50 ratio of less than 3 fold between the IC50 in the HAP1 MTAP-intact cell line and the HAP1 MTAP-deleted cell line)”. For the same compound, the “SAM/MTA Ratio” value at PRMT5 [4] is “A (a Ki ratio greater than or equal to 10 fold between the Ki in the presence of SAM and the Ki in the presence of MTA)”.

In the case of `COc1cc(C(=O)NC[C@@H](O)[C@@H]2Cc3ccc(OCc4ocnc4C)cc3CN2)cc(NC2CCC2)n1` [Compound 26, 2-(cyclobutylamino)-N—((R)-2-hydroxy-2-((S)-7-((4-methyloxazol-5-yl)methoxy)-1,2,3,4-tetrahydroisoquinolin-3-yl)ethyl)-6-methoxyisonicotinamide], the IC50 in test [1] was less than 1000 nM; in test [2], less than 1000 nM; at PRMT5 [3], 50 to 500 nM; on PRMT5 [4] it was less than 50 nM; at PRMT5 [5], 50 to 500 nM. Besides, in test [2], the “MTAP Intact/Deleted Ratio” value is “C* (an IC50 ratio of less than 3 fold between the IC50 in the HAP1 MTAP-intact cell line and the HAP1 MTAP-deleted cell line)”. The “SAM/MTA Ratio” value at PRMT5 [4] is “A (a Ki ratio greater than or equal to 10 fold between the Ki in the presence of SAM and the Ki in the presence of MTA)”.

Consider `Cc1ncoc1COc1ccc2c(c1)CN[C@H]([C@H](O)CNC(=O)c1cc(NC3CCC3)ncc1F)C2` [Compound 27, 2-(cyclobutylamino)-5-fluoro-N—((R)-2-hydroxy-2-((S)-7-((4-methyloxazol-5-yl)methoxy)-1,2,3,4-tetrahydroisoquinolin-3-yl)ethyl)isonicotinamide], for which the half-maximal inhibitory concentration (IC50) is 1000 to 10000 nM in test [1]; less than 1000 nM in test [2]; 500 to 5000 nM at PRMT5 [3]; 50 to 500 nM at PRMT5 [4]; 50 to 500 nM on PRMT5 [5]. The “MTAP Intact/Deleted Ratio” value in test [2] is “A* (an IC50 ratio greater than or equal to 10 fold between the IC50 in the HAP1 MTAP-intact cell line and the HAP1 MTAP-deleted cell line)”. For the same compound, on PRMT5 [4], the “SAM/MTA Ratio” value is “A (a Ki ratio greater than or equal to 10 fold between the Ki in the presence of SAM and the Ki in the presence of MTA)”.
